Here are results for 20 compounds from ChEMBL document CHEMBL1148724, “Design, synthesis, and biological activity of 5,10-dihydro-dibenzo[b,e][1,4]diazepin-11-one-based potent and selective Chk-1 inhibitors” (J Med Chem, 2007).

Usually IC50 stands for the midpoint of a concentration-inhibition curve.

Structures are written as SMILES. A value given as a limit tells only on which side of the number the result lay.

For the assay, the target named is T1, Serine/threonine-protein kinase Chk1 (Homo sapiens, UniProt O14757).
T1 sequence (O14757 whole entry): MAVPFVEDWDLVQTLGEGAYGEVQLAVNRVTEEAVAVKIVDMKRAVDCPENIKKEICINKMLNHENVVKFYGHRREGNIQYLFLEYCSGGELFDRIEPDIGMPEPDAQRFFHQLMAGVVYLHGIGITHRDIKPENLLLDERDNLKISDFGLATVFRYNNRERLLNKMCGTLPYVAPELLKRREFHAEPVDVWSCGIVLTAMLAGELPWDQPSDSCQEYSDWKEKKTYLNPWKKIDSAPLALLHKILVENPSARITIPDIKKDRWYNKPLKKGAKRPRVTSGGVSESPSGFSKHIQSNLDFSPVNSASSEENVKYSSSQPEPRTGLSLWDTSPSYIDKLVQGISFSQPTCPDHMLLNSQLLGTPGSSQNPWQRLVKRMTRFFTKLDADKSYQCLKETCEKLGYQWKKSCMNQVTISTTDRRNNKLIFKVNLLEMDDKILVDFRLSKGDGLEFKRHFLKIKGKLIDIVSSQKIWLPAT
Nature of the assay: Inhibition of human recombinant Chk1.
On to `O=C1Nc2ccccc2Nc2cc(-c3ccccc3)ccc21`, for which the IC50 is greater than 10000 nM.
In the case of `CCOc1cccc(-c2ccc3c(c2)Nc2ccccc2NC3=O)c1`, the IC50 was greater than 10000 nM.
Next, `N#Cc1ccc(-c2ccc3c(c2)Nc2ccccc2NC3=O)cc1`: greater than 10000 nM.
The result for `CC(=O)c1ccccc1-c1ccc2c(c1)Nc1ccccc1NC2=O` reads 8000 nM; that for `COc1cc(-c2ccc3c(c2)Nc2ccccc2NC3=O)ccc1O`, 82 nM; that for `COc1cc(-c2ccc3c(c2)Nc2ccccc2NC3=O)ccc1C#N`, 33 nM.
On to `O=c1[nH]c2ccccc2c(=O)c2ccccc12`, for which the IC50 is greater than 50000 nM.
The result for `O=C1Nc2ccccc2S(=O)(=O)c2ccccc21` reads greater than 50000 nM; that for `O=C1Nc2ccccc2C(O)c2ccccc21` (stereo not given), greater than 50000 nM; that for `COc1cc(-c2ccc3c(c2)Nc2ccccc2NC3=O)ccc1C(C)=O`, 48 nM.
Next, `COc1cc(-c2ccc3c(c2)Nc2ccccc2NC3=O)ccc1C(N)=O`: 88 nM; `COc1cccc(-c2ccc3c(c2)Nc2ccccc2NC3=O)c1`: 500 nM.
The result for `N#Cc1cccc(-c2ccc3c(c2)Nc2ccccc2NC3=O)c1` reads 970 nM; that for `CC(=O)c1cccc(-c2ccc3c(c2)Nc2ccccc2NC3=O)c1`, 2100 nM.
Regarding `CC(=O)c1ccc(-c2ccc3c(c2)Nc2ccccc2NC3=O)cc1`, the 50% inhibitory concentration (IC50) was greater than 10000 nM.
The result for `COc1cc(-c2ccc3c(c2)Nc2ccccc2NC3=O)ccc1[N+](=O)[O-]` reads 10 nM; that for `COc1ccccc1-c1ccc2c(c1)Nc1ccccc1NC2=O`, 3600 nM.
The result for `COC(=O)c1ccc(-c2ccc3c(c2)Nc2ccccc2NC3=O)cc1OC` reads 53 nM; that for `COc1cc(-c2ccc3c(c2)C(=O)Nc2ccccc2N3)ccc1O`, greater than 10000 nM; that for `COc1cc(-c2ccc3c(c2)Nc2ccccc2NC3=O)ccc1Cl`, 91 nM.
